According to patent publication US20080193958A1, “Method for the High-Speed Detection and/or Measurement of a Lipase or Phospholipase Activity” (CENTRE NATIONAL DE LA RECHERCHE SCIENTIFIQUE, priority 2005, published 2008):

Experiments:
[1] = target: T1, human pancreatic lipase (HPL) (Homo sapiens, UniProt P16233); experiment: Inhibition of human pancreatic lipase by THL injected during lipolysis, coated microplate (method B); type: biochemical; details: THL 10 nM final injected during lipolysis, HPL 2 nM final
T1 sequence (P16233 17-465): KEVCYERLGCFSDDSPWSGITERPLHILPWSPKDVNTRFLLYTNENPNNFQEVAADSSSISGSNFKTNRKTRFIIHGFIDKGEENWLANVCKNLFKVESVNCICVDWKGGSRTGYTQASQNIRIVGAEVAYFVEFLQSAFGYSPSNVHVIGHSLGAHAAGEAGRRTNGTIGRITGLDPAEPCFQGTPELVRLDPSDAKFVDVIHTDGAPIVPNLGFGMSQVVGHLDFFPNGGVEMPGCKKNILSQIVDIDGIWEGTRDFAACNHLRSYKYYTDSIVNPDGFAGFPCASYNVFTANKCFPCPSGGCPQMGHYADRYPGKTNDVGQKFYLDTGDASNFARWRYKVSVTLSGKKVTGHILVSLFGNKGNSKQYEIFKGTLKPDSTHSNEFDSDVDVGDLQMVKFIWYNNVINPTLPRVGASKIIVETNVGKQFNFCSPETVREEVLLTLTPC
Method: FIG. 4B corresponds to a different protocol (method B): after the injection of HPL (at a final concentration of 2 nM), THL is injected into the reaction medium (at a final concentration of 10 nM) during lipolysis. The microtitration plates, with “coating” of the lipid substrate, are prepared as has been described above. A solution constituted by Tris buffer and β-cyclodextrin (3 mg/ml) is added into the wells. The optical density at 270 nm is recorded as a function of time for 5 to 10 min (see FIGS. 4A and 4B). A solution of human pancreatic lipase (HPL), alone or pre-incubated with THL (inhibitor), is injected into the wells. The enzymatic activity is then recorded as a function of time by measurement of the OD at 272 nm (method A; FIG. 4A). The pre-incubation of HPL with THL, at a molar excess of 1 to 100 or of 1 to 50 for 10 min, reduces the initial lipase activity by 75% or 40% respectively (see FIG. 4A). The effect of THL on the lipase activity has also been measured by injecting THL during lipolysis (method B; FIG. 4B). The injection of THL (at a final concentration of 10 nM) reduces the activity of HPL by approximately 40%.

[2] = target: T1, human pancreatic lipase (HPL); experiment: Inhibition of human pancreatic lipase pre-incubated with THL, coated tung oil triglyceride microplate (method A); type: biochemical; details: OD at 272 nm
Method: FIGS. 4A and 4B represent the inhibition kinetics of HPL (human pancreatic lipase) by THL (tetrahydrolipstatin). The microplate is prepared by “coating” with triglycerides (50 μg/well) extracted from tung oil which contains a high proportion of a-eleostearic acid. A solution (200 μl) of Tris buffer is added to the wells. The activity of the HPL alone, or pre-incubated with the THL, is measured by recording the optical density (method A; FIG. 4A). FIG. 4A represents the optical density (OD) at 272 nm as a function of time. The curve with the black circles corresponds to the lipase HPL alone; the curve with the black squares corresponds to the lipase HPL pre-incubated with THL in a ratio of 1:100 and the curve with the white circles corresponds to the lipase HPL pre-incubated with THL in a ratio of 1:50. The microtitration plates, with “coating” of the lipid substrate, are prepared as has been described above. A solution constituted by Tris buffer and β-cyclodextrin (3 mg/ml) is added into the wells. The optical density at 270 nm is recorded as a function of time for 5 to 10 min (see FIGS. 4A and 4B). A solution of human pancreatic lipase (HPL), alone or pre-incubated with THL (inhibitor), is injected into the wells. The enzymatic activity is then recorded as a function of time by measurement of the OD at 272 nm (method A; FIG. 4A). […]

Structure (SMILES): CCCCCCCCCCC[C@@H](C[C@@H]1OC(=O)[C@H]1CCCCCC)OC(=O)[C@H](CC(C)C)NC=O [THL, Tetrahydrolipstatin]
- reduction of the activity of HPL [1]: approximately 40%
- reduction of the initial lipase activity ([2]; HPL pre-incubated with THL at a molar excess of 1 to 50 for 10 min): 40%
- reduction of the initial lipase activity ([2]; HPL pre-incubated with THL at a molar excess of 1 to 100 for 10 min): 75%
